{"source": "the supplement of paper PMC10307832", "assay_in_all_cases": "relative viability (nuclei count vs DMSO), 5 days (fraction); higher = more cells survive", "key": {"NCI-H1623": {"system": "NCI-H1623", "how_it_was_run": "(§1)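 Relative viability divides the nuclei count in treated wells by that in vehicle wells. Lung cancer cell lines were seeded in 1536-well plates, dosed by pin tool the next day, and fixed and stained after 5 days in one step with final 0.05% Triton X-100, 1% formaldehyde and 1 ug/ml Hoechst. Dosing was a single drug or a fixed anchor-drug dose plus five library-drug doses (not always all listed) in √10 steps, and values are medians of duplicate plates imaged at 4×.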"}, "NCI-H2009": {"system": "NCI-H2009", "how_it_was_run": "as §1"}, "NCI-H460": {"system": "NCI-H460", "how_it_was_run": "as §1"}, "NCI-H522": {"system": "NCI-H522", "how_it_was_run": "as §1"}, "NCI-H661": {"system": "NCI-H661", "how_it_was_run": "as §1"}}}
{"smiles": "CC1(C)CCC(c2ccc(Cl)cc2)=C(CN2CCN(c3ccc(C(=O)NS(=O)(=O)c4ccc(N[C@H](CCN5CCOCC5)CSc5ccccc5)c(S(=O)(=O)C(F)(F)F)c4)cc3)CC2)C1", "note": "[Navitoclax] + Cc1nc(Nc2ncc(C(=O)Nc3c(C)cccc3Cl)s2)cc(N2CCN(CCO)CC2)n1 [Dasatinib] (partner 0.075 µM)", "values": [{"measurement": "relative viability", "setting": "NCI-H1623; first compound 0.005 µM", "value": 0.546}, {"measurement": "relative viability", "setting": "NCI-H1623; first compound 0.01581 µM", "value": 0.578}, {"measurement": "relative viability", "setting": "NCI-H1623; first compound 0.05 µM", "value": 0.518}, {"measurement": "relative viability", "setting": "NCI-H1623; first compound 0.1581 µM", "value": 0.539}, {"measurement": "relative viability", "setting": "NCI-H1623; first compound 0.5 µM", "value": 0.618}, {"measurement": "relative viability", "setting": "NCI-H2009; first compound 0.005 µM", "value": 0.232}, {"measurement": "relative viability", "setting": "NCI-H2009; first compound 0.01581 µM", "value": 0.383}, {"measurement": "relative viability", "setting": "NCI-H2009; first compound 0.05 µM", "value": 0.264}, {"measurement": "relative viability", "setting": "NCI-H2009; first compound 0.1581 µM", "value": 0.336}, {"measurement": "relative viability", "setting": "NCI-H2009; first compound 0.5 µM", "value": 0.319}, {"measurement": "relative viability", "setting": "NCI-H460; first compound 0.005 µM", "value": 0.522}, {"measurement": "relative viability", "setting": "NCI-H460; first compound 0.01581 µM", "value": 0.609}, {"measurement": "relative viability", "setting": "NCI-H460; first compound 0.05 µM", "value": 0.651}, {"measurement": "relative viability", "setting": "NCI-H460; first compound 0.1581 µM", "value": 0.53}, {"measurement": "relative viability", "setting": "NCI-H460; first compound 0.5 µM", "value": 0.483}, {"measurement": "relative viability", "setting": "NCI-H522; first compound 0.005 µM", "value": 0.685}, {"measurement": "relative viability", "setting": "NCI-H522; first compound 0.01581 µM", "value": 1.02}, {"measurement": "relative viability", "setting": "NCI-H522; first compound 0.05 µM", "value": 1.17}, {"measurement": "relative viability", "setting": "NCI-H522; first compound 0.1581 µM", "value": 1.06}, {"measurement": "relative viability", "setting": "NCI-H522; first compound 0.5 µM", "value": 0.816}, {"measurement": "relative viability", "setting": "NCI-H661; first compound 0.005 µM", "value": 0.621}, {"measurement": "relative viability", "setting": "NCI-H661; first compound 0.01581 µM", "value": 1.11}, {"measurement": "relative viability", "setting": "NCI-H661; first compound 0.05 µM", "value": 0.901}, {"measurement": "relative viability", "setting": "NCI-H661; first compound 0.1581 µM", "value": 0.933}, {"measurement": "relative viability", "setting": "NCI-H661; first compound 0.5 µM", "value": 0.926}]}
{"smiles": "CC1(C)CCC(c2ccc(Cl)cc2)=C(CN2CCN(c3ccc(C(=O)NS(=O)(=O)c4ccc(N[C@H](CCN5CCOCC5)CSc5ccccc5)c(S(=O)(=O)C(F)(F)F)c4)cc3)CC2)C1", "note": "[Navitoclax] + CCNC(=O)c1noc(-c2cc(C(C)C)c(O)cc2O)c1-c1ccc(CN2CCOCC2)cc1 [Luminespib] (partner 0.01 µM)", "values": [{"measurement": "relative viability", "setting": "NCI-H1623; first compound 0.005 µM", "value": 0.478}, {"measurement": "relative viability", "setting": "NCI-H1623; first compound 0.01581 µM", "value": 0.631}, {"measurement": "relative viability", "setting": "NCI-H1623; first compound 0.05 µM", "value": 0.463}, {"measurement": "relative viability", "setting": "NCI-H1623; first compound 0.1581 µM", "value": 0.515}, {"measurement": "relative viability", "setting": "NCI-H1623; first compound 0.5 µM", "value": 0.471}, {"measurement": "relative viability", "setting": "NCI-H2009; first compound 0.005 µM", "value": 1.04}, {"measurement": "relative viability", "setting": "NCI-H2009; first compound 0.01581 µM", "value": 1.1}, {"measurement": "relative viability", "setting": "NCI-H2009; first compound 0.05 µM", "value": 1.02}, {"measurement": "relative viability", "setting": "NCI-H2009; first compound 0.1581 µM", "value": 1.07}, {"measurement": "relative viability", "setting": "NCI-H2009; first compound 0.5 µM", "value": 1.04}, {"measurement": "relative viability", "setting": "NCI-H460; first compound 0.005 µM", "value": 0.0372}, {"measurement": "relative viability", "setting": "NCI-H460; first compound 0.01581 µM", "value": 0.0368}, {"measurement": "relative viability", "setting": "NCI-H460; first compound 0.05 µM", "value": 0.0365}, {"measurement": "relative viability", "setting": "NCI-H460; first compound 0.1581 µM", "value": 0.0311}, {"measurement": "relative viability", "setting": "NCI-H460; first compound 0.5 µM", "value": 0.033}, {"measurement": "relative viability", "setting": "NCI-H522; first compound 0.005 µM", "value": 1.07}, {"measurement": "relative viability", "setting": "NCI-H522; first compound 0.01581 µM", "value": 1.25}, {"measurement": "relative viability", "setting": "NCI-H522; first compound 0.05 µM", "value": 1.04}, {"measurement": "relative viability", "setting": "NCI-H522; first compound 0.1581 µM", "value": 1.19}, {"measurement": "relative viability", "setting": "NCI-H522; first compound 0.5 µM", "value": 1.36}, {"measurement": "relative viability", "setting": "NCI-H661; first compound 0.005 µM", "value": 0.94}, {"measurement": "relative viability", "setting": "NCI-H661; first compound 0.01581 µM", "value": 0.853}, {"measurement": "relative viability", "setting": "NCI-H661; first compound 0.05 µM", "value": 0.971}, {"measurement": "relative viability", "setting": "NCI-H661; first compound 0.1581 µM", "value": 0.775}, {"measurement": "relative viability", "setting": "NCI-H661; first compound 0.5 µM", "value": 0.884}]}
